This passage reports EC50 results from US8569378B2, “p27 protein inducer” (Chugai Seiyaku Kabushiki Kaisha, priority 2007, dated 2013).

The first assay relates to p27 protein. Put plainly: Quantification of p27 protein by ELISA (p27 protein-inducing activity, EC50). Type of assay: cell-based, human. The note with it: NCI-H460 cells, 48 hours, p27 sandwich ELISA; Table 1-1. On the procedure:
The p27 protein-inducing activities of the compounds or salts listed in Tables 1-1, 1-2 and 2 below were measured as follows.
Preparation of Cell Lysate:
NCI-H460 human non-small cell lung cancer cells (ATCC HTB-177) were plated in 6-well plates at 2×10^5 cells/well and incubated overnight. Then, the test substance was added to the medium to a final concentration of 10000 nmol/L, 3000 nmol/L, 100 nmol/L, 30 nmol/L, 10 nmol/L, 3 nmol/L, 1 nmol/L, 0.3 nmol/L, 0.1 nmol/L, 0.03 nmol/L or 0.01 nmol/L and the cells were incubated at 37° C. in 5% CO2 for 48 hours. 150 μL of Cell Lysis Buffer (catalog no. 9803, Cell Signaling) which had been diluted to 1-fold concentration (1 mM PMSF was added immediately before use) was added, and the mixture was allowed to stand on ice for 10 minutes. The Cell Lysis Buffer in which cells were lysed was collected together with cells with a scraper and transferred to a new tube. It was centrifuged at 15000 rpm for 10 minutes at 4° C. and the supernatant was then transferred to a new tube.
Quantification by Sandwich ELISA:
Anti-p27 monoclonal antibody (catalog no. 71-9600, Zymed) was diluted to 5 μg/mL in 50 mM carbonate coating buffer (0.4 g/L NaCO3, 0.73 g/L NaHCO3 and 0.04 g/L NaN3 in distilled water), and it was then added at 50 μL/well and allowed to stand overnight at 4° C. to bind the antibody. After washing three times with PBS, 200 μL of blocking solution (0.2% I-Block in PBS) was added to each well. After 1 hour of incubation at room temperature, washing with PBS-T (0.05% Tween 20 in PBS) was performed three times. The sample and recombinant p27 protein standard were serially diluted in Cell Lysis Buffer (catalog no. 9803, Cell Signaling) which had been diluted to 1-fold concentration (1 mM PMSF was added immediately before use), and it was then added at 100 μL/well. After 1 hour of incubation at room temperature, washing with 200 μL of PBS-T was performed three times. HRP-labeled anti-p27 antibody (product no. 610243, BD Transdution Laboratories) was diluted 1:2500 (i.e. to 0.1 μg/mL) in 0.2% I-Block/0.05% PBS-T, and it was then added at 100 μL/well. After 1 hour of incubation at room temperature, washing with 200 μL of PBS-T was performed three times. Chromogenic substrate solution (TMB One Solution, catalog no. G7431, Promega) was added at 100 μL/well and allowed to develop a color reaction at room temperature. After stopping the reaction with 50 μL of 1N H2SO4, the absorbance at 450 nm was measured.
Calculation of EC50 Values:
A standard response curve was generated by plotting the amount of p27 protein against the concentration of the test substance. The basal level of response was defined as 0%, while the plateau level where the induction of p27 protein had been maximized was defined as 100%. Finally, the test substance concentration at which 50% induction was achieved was calculated, and it was defined as EC50.
For orientation: ELISA stands for enzyme-linked immunosorbent assay.
In general, EC50 refers to the concentration giving half of the maximal effect. The low end stands for a more potent agent, the high end for a less potent agent. `CNS(=O)(=O)Nc1cccc(Cc2c(CF)c3cc(Cl)c(OC(=O)N(C)C)cc3oc2=O)c1` [Compound 1j-1-3-2F, Dimethylcarbamic acid 6-chloro-4-fluoromethyl-3-{3-(methylaminosulfonyl)aminobenzyl}-2-oxo-2H-1-benzopyran-7-yl ester] yielded a concentration giving a half-maximal response (EC50) of 31 nM. The compound `Cc1c(Cc2cccc(NS(=O)(=O)N(C)C)c2)c(=O)oc2cc(OC(=O)N(C)C)c(Cl)cc12` [Compound 1j-1-3-3, Dimethylcarbamic acid 6-chloro-4-methyl-3-{3-(dimethylaminosulfonyl)aminobenzyl}-2-oxo-2H-1-benzopyran-7-yl ester] displayed an EC50 of 74 nM. In the case of `Cc1c(Cc2cccc(NS(N)(=O)=O)c2F)c(=O)oc2cc(OC(=O)N(C)C)ccc12` [Compound 1j-1-4-1, Dimethylcarbamic acid 3-(3-aminosulfonylamino-2-fluoro-benzyl)-4-methyl-2-oxo-2H-1-benzopyran-7-yl ester], the EC50 was determined as 180 nM. As for `CNS(=O)(=O)Nc1cccc(Cc2c(C)c3ccc(OC(=O)N(C)C)cc3oc2=O)c1F` [Compound 1j-1-4-2, Dimethylcarbamic acid 3-(3-methylaminosulfonylamino-2-fluoro-benzyl)-4-methyl-2-oxo-2H-1-benzopyran-7-yl ester], the response was half-maximal at 78 nM (EC50). As for `CNS(=O)(=O)Nc1cccc(Cc2c(CF)c3ccc(OC(=O)N(C)C)cc3oc2=O)c1F` [Compound 1j-1-4-2F, Dimethylcarbamic acid 3-(3-methylaminosulfonylamino-2-fluoro-benzyl)-4-fluoromethyl-2-oxo-2H-1-benzopyran-7-yl ester], the 50% effective concentration (EC50) is 60 nM. Same read-out and setting: the figure for `CNS(=O)(=O)Nc1cccc(Cc2c(C)c3cc(F)c(OC(=O)N(C)C)cc3oc2=O)c1F` [Compound 1j-1-5-2, Dimethylcarbamic acid 6-fluoro-4-methyl-3-{2-fluoro-3-(methylaminosulfonyl)aminobenzyl}-2-oxo-2H-1-benzopyran-7-yl ester] is 210 nM; for `Cc1c(Cc2cccc(NS(N)(=O)=O)c2)c(=O)oc2cc(OC(=O)N(C)C)c(I)cc12` [Compound 1j-1-7-1, Dimethylcarbamic acid 3-{3-(aminosulfonyl)aminobenzyl}-6-iodo-4-methyl-2-oxo-2H-1-benzopyran-7-yl ester] it is 160 nM; for `CNS(=O)(=O)Nc1cccc(Cc2c(C)c3cc(I)c(OC(=O)N(C)C)cc3oc2=O)c1` [Compound 1j-1-7-2, Dimethylcarbamic acid 6-iodo-4-methyl-3-{3-(methylaminosulfonyl)aminobenzyl}-2-oxo-2H-1-benzopyran-7-yl ester] it is 27 nM. Same read-out and setting: to `CNS(=O)(=O)Nc1cccc(Cc2c(C)c3cc(C)c(OC(=O)N(C)C)cc3oc2=O)c1` [Compound 1j-1-8-2, Dimethylcarbamic acid 6-methyl-4-methyl-3-{3-(methylaminosulfonyl)aminobenzyl}-2-oxo-2H-1-benzopyran-7-yl ester] belongs 240 nM; to `CNS(=O)(=O)Nc1cccc(Cc2c(C)c3cc(C#N)c(OC(=O)N(C)C)cc3oc2=O)c1` [Compound 1j-1-9-2, Dimethylcarbamic acid 6-cyano-4-methyl-3-{3-(methylaminosulfonyl)aminobenzyl}-2-oxo-2H-1-benzopyran-7-yl ester], 4800 nM; to `Cc1c(Cc2cccc(NS(=O)(=O)NCCC#N)c2)c(=O)oc2cc(OC(=O)N(C)C)c(Cl)cc12` [Compound 1j-1-21-2, Dimethylcarbamic acid 3-(3-(N-(2-cyanoethyl)sulfamoyl)aminobenzyl)-6-chloro-4-methyl-2-oxo-2H-1-benzopyran-7-yl ester], 150 nM.

`COCCNS(=O)(=O)Nc1cccc(Cc2c(C)c3cc(Cl)c(OC(=O)N(C)C)cc3oc2=O)c1` [Compound 1j-1-23-2, Dimethylcarbamic acid 3-(3-(N-(2-methoxyethyl)sulfamoyl)aminobenzyl)-6-chloro-4-methyl-2-oxo-2H-1-benzopyran-7-yl ester] returned a concentration for a half-maximal effect (EC50) of 220 nM.

Still in this assay, the particulars now being: NCI-H460 cells, 48 hours, p27 sandwich ELISA; Table 1-2.
As to `Cc1c(Cc2ccccc2)c(=O)oc2cc(OC(=O)N(C)C)c(Cl)cc12` [Comp. 2, dimethylcarbamic acid 2-oxo-2H-3-benzyl-4-methyl-6-chloro-1-benzopyran-7-yl ester, reference compound], the response was half-maximal at 5400 nM (EC50).

Turning to `CNS(=O)(=O)Nc1cc(Cc2c(C)c3cc(Cl)c(OC(=O)N(C)C)cc3oc2=O)ccn1` [Compound 1j-1-12-2, Dimethylcarbamic acid 4-methyl-3-{2-(methylaminosulfonyl)aminopyridin-4-ylmethyl}-6-chloro-2-oxo-2H-1-benzopyran-7-yl ester], the midpoint of the response, the EC50, lay at 1100 nM. The same measure, in the same setting: to `CNS(=O)(=O)Nc1nccc(Cc2c(C)c3cc(F)c(Oc4ncccn4)cc3oc2=O)c1F` [Compound 1j-2-17-2, 3-{2-(methylaminosulfonyl)amino-3-fluoropyridin-4-ylmethyl}-4-methyl-6-fluoro-7-(pyrimidin-2-yloxy)-2-oxo-2H-1-benzopyran] belongs 220 nM; to `CNS(=O)(=O)Nc1nccc(Cc2c(C)c3cc(Cl)c(Oc4ncccn4)cc3oc2=O)c1F` [Compound 1j-2-18-2, 3-{2-(Methylaminosulfonyl)amino-3-fluoropyridin-4-ylmethyl}-4-methyl-6-chloro-7-(pyrimidin-2-yloxy)-2-oxo-2H-1-benzopyran], 43 nM. Compound `CNS(=O)(=O)Nc1nccc(Cc2c(C)c3cc(C)c(Oc4ncccn4)cc3oc2=O)c1F` [Compound 1j-2-19-2, 3-{2-(Methylaminosulfonyl)amino-3-fluoropyridin-4-ylmethyl}-4-methyl-6-methyl-7-(pyrimidin-2-yloxy)-2-oxo-2H-1-benzopyran] came in with an EC50 of 160 nM. The same measure, in the same setting: the figure for `CCc1c(Cc2ccnc(NS(=O)(=O)NC)c2F)c(=O)oc2cc(Oc3ncccn3)c(C)cc12` [Compound 1j-2-19-2Me, 3-{2-(Methylaminosulfonyl)amino-3-fluoropyridin-4-ylmethyl}-4-ethyl-6-methyl-7-(pyrimidin-2-yloxy)-2-oxo-2H-1-benzopyran] is 48 nM. As to `CNS(=O)(=O)Nc1cc(Cc2c(C)c3cc(Cl)c(Oc4nccs4)cc3oc2=O)ccn1` [Compound 1j-3-12-2, 3-{2-(Methylaminosulfonyl)aminopyridin-4-ylmethyl}-4-methyl-6-chloro-7-(thiazol-2-yloxy)-2-oxo-2H-1-benzopyran], a half-maximal response (EC50) required 458 nM.

The assay is the same for the next values; noted with them: NCI-H460 cells, 48 hours, p27 sandwich ELISA; Table 2.
Compound `CNS(=O)(=O)Nc1cccc(Cc2c(C)c3ccc(OC(=O)N(C)C)cc3oc2=O)n1` [Compound 1j-1-13-2, Dimethylcarbamic acid 4-methyl-3-{6-(methylaminosulfonyl)aminopyridin-2-ylmethyl}-2-oxo-2H-1-benzopyran-7-yl ester] yielded a half-maximal effective concentration (EC50) of 2500 nM.

The compound `CNS(=O)(=O)Nc1cc(Cc2c(C)c3cc(Cl)c(Oc4ncccn4)cc3oc2=O)ccn1` [Compound 1j-2-12-2, 3-{2-(Methylaminosulfonyl)aminopyridin-4-ylmethyl}-4-methyl-7-(pyrimidin-2-yloxy)-6-chloro-2-oxo-2H-1-benzopyran] displayed an EC50 of 1450 nM. Consider `CNS(=O)(=O)Nc1nccc(Cc2c(C)c3ccc(Oc4ncccn4)cc3oc2=O)c1F` [Compound 1j-2-16-2, 3-{2-(Methylaminosulfonyl)amino-3-fluoropyridin-4-ylmethyl}-4-methyl-7-(pyrimidin-2-yloxy)-2-oxo-2H-1-benzopyran], for which the EC50 came to 504 nM. In the case of `CNS(=O)(=O)Nc1cccc(Cc2c(C)c3ccc(Oc4nccs4)cc3oc2=O)c1` [Compound 1j-3-1-2, 3-{3-(Methylaminosulfonyl)aminobenzyl}-4-methyl-7-(thiazol-2-yloxy)-2-oxo-2H-1-benzopyran], the midpoint of the response, the EC50, lay at 7100 nM. Take `CNS(=O)(=O)Nc1cccc(Cc2c(C)c3cc(C)c(Oc4nccs4)cc3oc2=O)c1` [Compound 1j-3-8-2, 3-{3-(Methylaminosulfonyl)aminobenzyl}-4-methyl-7-(thiazol-2-yloxy)-6-methyl-2-oxo-2H-1-benzopyran]: the EC50 was 540 nM.
